Molecules are shown by their SMILES.

As usually defined, the IC50 is the concentration at which inhibition is half-maximal. A higher IC50 goes with a need for much substance.

Delta-5-Desaturase (D5D), sequence (O60427 whole entry, species assumed): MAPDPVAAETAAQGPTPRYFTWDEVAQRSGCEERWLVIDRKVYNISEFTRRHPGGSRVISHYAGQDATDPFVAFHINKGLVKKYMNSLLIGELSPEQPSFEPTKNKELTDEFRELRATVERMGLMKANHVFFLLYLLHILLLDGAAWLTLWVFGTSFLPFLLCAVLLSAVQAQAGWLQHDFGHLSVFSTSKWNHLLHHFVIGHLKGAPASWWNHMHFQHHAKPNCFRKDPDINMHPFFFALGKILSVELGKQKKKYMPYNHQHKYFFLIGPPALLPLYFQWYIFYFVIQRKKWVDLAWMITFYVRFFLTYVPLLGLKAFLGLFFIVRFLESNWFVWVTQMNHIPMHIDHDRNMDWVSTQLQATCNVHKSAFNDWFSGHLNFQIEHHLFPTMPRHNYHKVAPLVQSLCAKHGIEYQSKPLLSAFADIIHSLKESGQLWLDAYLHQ

The target in this test is Delta-5-Desaturase (D5D) (Homo sapiens (Human), UniProt O60427). The test can be described thus: In vitro measurement of Delta-5-Desaturase inhibitory activity using DGLA-CoA and Arachidonyl-CoA mass spectrometric assays. It is filed as biochemical. The following applies: membrane preparations of D5D-overexpressing HEK293 6E cells; averaged over at least two independent runs. How it is done:
In vitro Measurement of Delta-5-Desaturase Inhibitory Activity using DGLA-CoA and Arachidonyl-CoA Mass Spectrometric Assays
Membrane preparations of D5D-overexpressing HEK293 6E cells were prepared in which the total protein concentration was 5.6 mg/mL. Stock D5D membrane preparations were diluted in D5D assay buffer (25 mM 2-amino-2-(hydroxymethyl)-1,3-propanediol, pH 7.5 containing 10 mM MgCl2, 1 mM octyl glucoside (SigmaAldrich 0-8001), 1 mM tris(2-carboxyethyl)phosphine hydrochloride (SigmaAldrich 646547)) to a final D5D membrane concentration of 10 μg/mL in an assay plate containing serially diluted test compounds. To 15 μL of this D5D preparation was added 15 μL of a substrate solution (0.25 mM NADH (nicotinamide adenine dinucleotide, Roche Diag. 10107735001), 0.25 mM adenosine triphosphate (SigmaAldrich A-3377), 0.05 mM coenzyme A hydrate (SigmaAldrich C-4282), and 0.01 mM DGLA (dihomo-g-linolenic acid, Sigma E-4504) in the same D5D assay buffer. After one-hour incubation at ambient temperature acetonitrile (30 μL) was added to quench the reaction and plates were centrifuged for 10 min @3,000 rpm. Mass spectrometric analysis involved a Rapidfire 360 SPE system coupled to an ABSciex API4000 Triple Quadrupole mass spectrometer using a C18 SPE cartridge (G9203-80105) with ionization in negative mode (solvent A=100% water; solvent B=100% acetonitrile, each solvent containing 5 mM ammonium acetate). DGLA-CoA and Arachidonyl-CoA were detected by multiple reaction monitoring (MRM) of the doubly charged parent ions at m/z 526.6 and 525.6, respectively.
Sx is value from unknown sample, So is value from DMSO alone and Sc is value from no enzyme well. For CRC analysis, the % of inhibitions were analyzed with 4 Parameter Logistic Model or Sigmoidal Dose-Response Model using XLfit (IDBS, Guilford, UK). The potency of the test item was expressed as IC50 nM, corresponding to the test item concentration able to inhibit the 50% of the enzyme maximal response. IC50 values were averaged values determined by at least two independent runs.
This assay may be used to test any of the compounds described herein to assess and characterize a compound's ability to inhibit D5D.
As for `[2H]C([2H])([2H])Oc1ccn2c(=O)c(-c3cnn(CCC(F)(F)F)c3)c(C(F)(F)F)nc2c1` [Example 1-61, 8-(methyloxy-d3)-2-(trifluoromethyl)-3-(1-(3,3,3-trifluoropropyl)-1H-pyrazol-4-yl)-4H-pyrido[1,2-a]pyrimidin-4-one], inhibition was half-maximal at 11.4 nM (IC50). In other words, the double-digit nanomolar range.

As for `Cc1cc2nc(C(F)(F)F)c(-c3cnn(CC(F)(F)C(F)(F)F)c3)c(=O)n2cc1Cl` [Example 41-1, 7-Chloro-8-methyl-3-[1-(2,2,3,3,3-pentafluoropropyl)-1H-pyrazol-4-yl]-2-(trifluoromethyl)-4H-pyrido[1,2-a]pyrimidin-4-one], the IC50 was 1.2 nM. As to `COc1ccn2c(=O)c(-c3ccc(OCC(F)(F)C(F)(F)F)cc3)c(C(F)(F)F)nc2c1` [Example 22, 8-Methoxy-3-(4-(2,2,3,3,3-pentafluoropropoxy)phenyl)-2-(trifluoromethyl)-4H-pyrido[1,2-a]pyrimidin-4-one], the IC50 was 4 nM. This IC50 lies about 3.3-fold higher than the previous one.

`O=c1c(-c2cnn(CC(F)(F)C(F)(F)F)c2)c(C(F)(F)F)nc2cnccn12` [Example 39-25, 3-[1-(2,2,3,3,3-pentafluoropropyl)-1H-pyrazol-4-yl]-2-(trifluoromethyl)-4H-pyrazino[1,2-a]pyrimidin-4-one] had a 50% inhibitory concentration (IC50) of 3.7 nM. In turn, `CC1(c2ccn3c(=O)c(-c4ccc(OCC(F)(F)F)cc4)c(C(F)(F)F)nc3c2)CCO1` (stereo not shown) [Example 27, 8-(2-Methyl-2-oxetanyl)-3-(4-(2,2,2-trifluoroethoxy)phenyl)-2-(trifluoromethyl)-4H-pyrido[1,2-a]pyrimidin-4-one] gave a half-maximal inhibitory concentration (IC50) of 553 nM. Compared with the last molecule, the IC50 is about 150-fold higher. `O=c1c(-c2ccc(OCC(F)(F)F)cc2)c(C(F)(F)F)nc2cc(Cl)ccn12` [Example 2-7, 8-chloro-3-(4-(2,2,2-trifluoroethoxy)phenyl)-2-(trifluoromethyl)-4H-pyrido[1,2-a]pyrimidin-4-one]: inhibition was half-maximal at 4.1 nM (IC50). `Cc1cnn2c(=O)c(-c3ccc(OCC(F)(F)F)cc3)c(C(F)(F)F)nc2c1` [Example 39-50, 8-methyl-3-[4-(2,2,2-trifluoroethoxy)phenyl]-2-(trifluoromethyl)-4H-pyrimido[1,2-b]pyridazin-4-one] came in with an IC50 of 105 nM. Compared with the last molecule, the IC50 is about 26-fold higher. Consider `O=c1c(-c2cnn(CC(F)(F)C(F)(F)F)c2)c(C(F)(F)F)nc2ccc(F)cn12` [Example 39-23, 7-fluoro-3-[1-(2,2,3,3,3-pentafluoropropyl)-1H-pyrazol-4-yl]-2-(trifluoromethyl)-4H-pyrido[1,2-a]pyrimidin-4-one], for which it took 2.1 nM to reach half-maximal inhibition (IC50). This IC50 is about 50-fold lower than that of the molecule before.

Turning to `O=c1ccn2c(=O)c(-c3ccc(OCCF)cc3)c(C(F)(F)F)nc2[nH]1` [Example 1-56, 7-(4-(2-fluoroethoxy)phenyl)-8-(trifluoromethyl)-2H-pyrimido[1,2-a]pyrimidine-2,6(1H)-dione], the IC50 came out at 9280 nM. As to `NCc1ccn2c(=O)c(-c3cnn(CC(F)(F)C(F)(F)F)c3)c(C(F)(F)F)nc2c1` [Example 16-2, 8-(aminomethyl)-3-(1-(2,2,3,3,3-pentafluoropropyl)-1H-pyrazol-4-yl)-2-(trifluoromethyl)-4H-pyrido[1,2-a]pyrimidin-4-one], the half-inhibitory concentration (IC50) was 137 nM. In turn, `CCc1ccn2c(=O)c(-c3ccc(OCC(F)(F)F)cc3)c(C(F)(F)F)nc2c1` [Example 2-1, 8-Ethyl-3-(4-(2,2,2-trifluoroethoxy)phenyl)-2-(trifluoromethyl)-4H-pyrido[1,2-a]pyrimidin-4-one] had an IC50 of 22.6 nM. As for `O=c1c(-c2cnn(CC(F)(F)C(F)(F)F)c2)c(C(F)(F)F)nc2cc(C3CC3)ccn12` [Example 1-87, 8-cyclopropyl-3-(1-(2,2,3,3,3-pentafluoropropyl)-1H-pyrazol-4-yl)-2-(trifluoromethyl)-4H-pyrido[1,2-a]pyrimidin-4-one], the IC50 amounted to 85.9 nM. This IC50 lies about 3.8-fold higher than the previous one. Next, `CN(C)C(=O)c1ccn2c(=O)c(-c3ccc(OCC(F)(F)F)cc3)c(C(F)(F)F)nc2c1` [Example 12-3, N,N-dimethyl-4-oxo-3-(4-(2,2,2-trifluoroethoxy)phenyl)-2-(trifluoromethyl)-4H-pyrido[1,2-a]pyrimidine-8-carboxamide]: 2540 nM; `CCCc1ccc(-c2c(C(F)(F)F)nc3cc(OC)ccn3c2=O)cn1` [Example 7-6, 8-methoxy-3-(6-propyl-3-pyridinyl)-2-(trifluoromethyl)-4H-pyrido[1,2-a]pyrimidin-4-one]: 302 nM; `Cc1cc2nc(C(F)(F)F)c(-c3cnn(CC(F)(F)C(F)(F)F)c3)c(=O)n2cc1F` [Example 39-56, 7-fluoro-8-methyl-3-[1-(2,2,3,3,3-pentafluoropropyl)-1H-pyrazol-4-yl]-2-(trifluoromethyl)-4H-pyrido[1,2-a]pyrimidin-4-one]: 19.1 nM. In the case of `COc1ccn2c(=O)c(-c3ccc(OC(C)C#N)cc3)c(C(F)(F)F)nc2c1` (stereo not shown) [Example 8-4, 2-(4-(8-methoxy-4-oxo-2-(trifluoromethyl)-4H-pyrido[1,2-a]pyrimidin-3-yl)phenoxy)propanenitrile], the midpoint of inhibition, the IC50, lay at 16.2 nM. This IC50 and that of the molecule before are within 1.5-fold of each other. Regarding `O=c1c(-c2cnc(OCC(F)(F)F)nc2)c(C(F)(F)F)nc2ccc(F)cn12` [Example 39-26, 7-fluoro-3-[2-(2,2,2-trifluoroethoxy)pyrimidin-5-yl]-2-(trifluoromethyl)-4H-pyrido[1,2-a]pyrimidin-4-one], the 50% inhibitory concentration (IC50) was above 67000 nM. Molecule `Cc1ccn2c(=O)c(-c3ccc(OCC(F)(F)F)cc3)c(C(F)(F)F)nc2c1` [Example 1-78, 8-methyl-3-(4-(2,2,2-trifluoroethoxy)phenyl)-2-(trifluoromethyl)-4H-pyrido[1,2-a]pyrimidin-4-one] had an IC50 of 2.7 nM.

In turn, `Cn1c(=O)ccn2c(=O)c(-c3cnn(CC(F)(F)C(F)(F)F)c3)c(C(F)(F)F)nc12` [Example 67, 1-Methyl-7-[1-(2,2,3,3,3-pentafluoropropyl)-1H-pyrazol-4-yl]-8-(trifluoromethyl)-1H,2H,6H-[1,3]diazino[1,2-a]pyrimidine-2,6-dione] displayed an IC50 of 32.5 nM. Compared with the last molecule, the IC50 is about 12-fold higher. The molecule `COc1cnn2c(=O)c(-c3cnn(CCC(F)(F)F)c3)c(C(F)(F)F)nc2c1` [Example 39-11, 8-methoxy-2-(trifluoromethyl)-3-[1-(3,3,3-trifluoropropyl)-1H-pyrazol-4-yl]-4H-pyrimido[1,2-b]pyridazin-4-one] yielded an IC50 of 6.9 nM. This IC50 is about 4.7-fold lower than that of the molecule before. Under `COc1ccn2c(=O)c(-c3cnc(OCC(F)(F)F)s3)c(C(F)(F)F)nc2c1` [Example 56, 8-Methoxy-3-[2-(2,2,2-trifluoroethoxy)-1,3-thiazol-5-yl]-2-(trifluoromethyl)-4H-pyrido[1,2-a]pyrimidin-4-one] stands 21.5 nM; under `O=C(O)c1ccn2c(=O)c(-c3cnn(CC(F)(F)C(F)(F)F)c3)c(C(F)(F)F)nc2c1` [Example 1-21, 4-oxo-3-(1-(2,2,3,3,3-pentafluoropropyl)-1H-pyrazol-4-yl)-2-(trifluoromethyl)-4H-pyrido[1,2-a]pyrimidine-8-carboxylic acid], 3390 nM. `C[S@+]([O-])c1ccn2c(=O)c(-c3cnn(CC(F)(F)C(F)(F)F)c3)c(C(F)(F)F)nc2c1` [Example 15-5, 8-((S)-methylsulfinyl)-3-(1-(2,2,3,3,3-pentafluoropropyl)-1H-pyrazol-4-yl)-2-(trifluoromethyl)-4H-pyrido[1,2-a]pyrimidin-4-one] yielded a half-maximal inhibitory concentration (IC50) of 159 nM.

With `CCOc1nc2cc(OC)ccn2c(=O)c1-c1cnn(CC(F)(F)C(F)(F)F)c1` [Example 41-4, 2-ethoxy-8-methoxy-3-[1-(2,2,3,3,3-pentafluoropropyl)-1H-pyrazol-4-yl]-4H-pyrido[1,2-a]pyrimidin-4-one], the IC50 amounted to 22.3 nM. This IC50 lies about 7.1-fold lower than the previous one. Regarding `COc1ccn2c(=O)c(-c3cnn(-c4ccccc4)c3)c(C(F)(F)F)nc2c1` [Example 1-47, 8-methoxy-3-(1-phenyl-1H-pyrazol-4-yl)-2-(trifluoromethyl)-4H-pyrido[1,2-a]pyrimidin-4-one], the midpoint of inhibition, the IC50, lay at 5.4 nM. This IC50 is about 4.1-fold lower than that of the molecule before.

With `CC[S@@+]([O-])c1ccn2c(=O)c(-c3ccc(OCC(F)(F)F)cc3)c(C(F)(F)F)nc2c1` [Example 15-8, 8-((R)-ethylsulfinyl)-3-(4-(2,2,2-trifluoroethoxy)phenyl)-2-(trifluoromethyl)-4H-pyrido[1,2-a]pyrimidin-4-one], the midpoint of inhibition, the IC50, lay at 185 nM. Against the preceding molecule, the IC50 is about 34-fold higher.

In turn, `O=c1c(-c2ccc(OCC(F)(F)F)c(Cl)c2)c(C(F)(F)F)nc2ccccn12` [Example 5-2, 3-(3-chloro-4-(2,2,2-trifluoroethoxy)phenyl)-2-(trifluoromethyl)-4H-pyrido[1,2-a]pyrimidin-4-one] returned an IC50 of 157 nM.

As for `CN(C)Cc1ccc2nc(C(F)(F)F)c(-c3cnn(CC(F)(F)C(F)(F)F)c3)c(=O)n2c1` [Example 39-29, 7-[(dimethylamino)methyl]-3-[1-(2,2,3,3,3-pentafluoropropyl)-1H-pyrazol-4-yl]-2-(trifluoromethyl)-4H-pyrido[1,2-a]pyrimidin-4-one], the IC50 was above 67000 nM.
